Reference: patent US9238011B2, “Compositions, methods and kits for therapeutic treatment with wet spun microstructures” (Brown University, priority 2012, dated 2016)
≈ marks a conversion by molar mass, not a printed value.

Test: Solubility of DXM in the 6:1 (v/v) DCM to THF spin dope co-solvent
Format: physicochemical
Conditions: 6:1 (v/v) DCM to THF co-solvent (spin dope), organic solvent or mixture; 6:1 (v/v) DCM to THF with PLLA; read-out: maximum solubility in co-solvent solution
Description: PLLA (7.5% w/v), DXM-loaded (1.0%, 2.4%, 4.8% w/w) and unloaded (0% w/w) microfibers were wet spun by phase inversion. PLLA (526.9±0.3 mg) was dissolved in a co-solvent ratio of 6:1 (v/v) DCM to THF. […] The addition of THF was necessary to increase DXM solubility within the spin dope. The polymer/drug solution was loaded into a 5 mL syringe fitted with a 22-gauge spinneret and placed in a syringe pump with a solution flow rate of 0.06 mL/min. […] A rotating mandrel placed above the spin bath was used to collect microfibers for further analysis. Each formulation in Examples herein was characterized from multiple regions of meter-long microfiber bundles spun at the same time from one spin dope solution.

solubility: ~3600 µg/mL (≈ 9.17 mM)
SMILES: C[C@@H]1C[C@H]2[C@@H]3CCC4=CC(=O)C=C[C@]4(C)[C@@]3(F)[C@@H](O)C[C@]2(C)[C@@]1(O)C(=O)CO [DXM, Dexamethasone]
